Consider 15 compounds from US20230257372A1 (CHONG KUN DANG PHARMACEUTICAL CORP., priority 2020, published 2023).

The target in assay [1] is T1, human recombinant HDAC1 (Homo sapiens, UniProt Q13547).
T1 construct: purchased Enzo Life Science, Inc. BML-SE456
Kind of assay: HDAC1 enzyme activity inhibition (HDAC Fluorimetric Drug Discovery Kit). Format: biochemical. Particulars: read-out: HDAC1. An outline of the steps:
(§1)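 Each isoform is run in the same format: compound dilutions (5-fold steps), 10 μM substrate, […] enzyme, one hour at 30° C, then 30 minutes with developer before fluorescence readout.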

Assay [2] deals with T2, human recombinant HDAC6 (Homo sapiens, UniProt Q9UBN7).
T2 construct: purchased Calbiochem Inc. 382180
T2 sequence (Q9UBN7 1-1215): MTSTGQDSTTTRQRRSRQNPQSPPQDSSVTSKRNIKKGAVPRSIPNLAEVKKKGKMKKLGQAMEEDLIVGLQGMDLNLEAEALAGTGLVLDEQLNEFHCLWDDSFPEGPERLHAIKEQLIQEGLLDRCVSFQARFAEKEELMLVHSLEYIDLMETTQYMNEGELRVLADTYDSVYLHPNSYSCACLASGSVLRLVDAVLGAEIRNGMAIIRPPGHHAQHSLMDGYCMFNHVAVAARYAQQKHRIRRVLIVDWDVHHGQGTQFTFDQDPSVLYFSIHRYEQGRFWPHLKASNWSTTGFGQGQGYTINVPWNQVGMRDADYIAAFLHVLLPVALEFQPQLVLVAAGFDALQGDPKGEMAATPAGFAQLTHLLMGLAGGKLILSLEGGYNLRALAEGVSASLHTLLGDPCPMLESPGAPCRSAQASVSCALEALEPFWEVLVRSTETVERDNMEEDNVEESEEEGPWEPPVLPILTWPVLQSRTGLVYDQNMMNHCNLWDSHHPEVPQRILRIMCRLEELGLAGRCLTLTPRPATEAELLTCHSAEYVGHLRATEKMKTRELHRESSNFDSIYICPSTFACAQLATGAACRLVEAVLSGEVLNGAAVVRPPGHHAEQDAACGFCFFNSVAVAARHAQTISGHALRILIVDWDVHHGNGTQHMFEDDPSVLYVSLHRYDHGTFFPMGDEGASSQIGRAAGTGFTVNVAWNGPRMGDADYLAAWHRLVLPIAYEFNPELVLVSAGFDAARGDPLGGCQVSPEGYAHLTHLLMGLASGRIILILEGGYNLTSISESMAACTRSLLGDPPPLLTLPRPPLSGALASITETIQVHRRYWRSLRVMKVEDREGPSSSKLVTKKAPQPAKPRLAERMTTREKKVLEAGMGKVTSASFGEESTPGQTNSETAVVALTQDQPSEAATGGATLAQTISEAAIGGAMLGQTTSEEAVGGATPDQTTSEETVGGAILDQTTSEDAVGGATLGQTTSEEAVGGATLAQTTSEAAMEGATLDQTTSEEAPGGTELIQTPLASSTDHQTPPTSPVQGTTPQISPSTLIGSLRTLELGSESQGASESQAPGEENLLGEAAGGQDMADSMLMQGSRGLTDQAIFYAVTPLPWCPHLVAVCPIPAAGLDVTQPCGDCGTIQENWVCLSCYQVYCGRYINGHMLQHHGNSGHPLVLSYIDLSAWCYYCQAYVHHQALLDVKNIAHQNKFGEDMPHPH
The assay is described as follows: HDAC6 enzyme activity inhibition (HDAC Fluorimetric Drug Discovery Kit). Format: biochemical. An outline of the steps: as §1

For assay [3], the system named is hippocampal neurons from a Sprague-Dawley (SD) rat fetus. Kind of assay: Effect of HDAC6-specific inhibitor on axonal transport of mitochondria in amyloid-beta treated neurons. Format: cell-based. Particulars: transport velocity of mitochondria in neuronal axon after normalization; vehicle = 100%, amyloid beta treatment group = 0%; compound treatment for three hours. The method, then: On the 17th to 18th days (E17-18) of insemination, the hippocampal neurons from a Sprague-Dawley (SD) rat fetus were cultured in a culture container for imaging, which had been coated with extracellular matrix, and were treated with amyloid-beta protein fragments at a concentration of […]. In 24 hours later, the neurons were treated with the compound on the 8th day of in vitro culture. In three hours later, the resulting neurons were treated with MitoTracker Red CMXRos (Life Technologies, NY, USA) for last five minutes to stain mitochondria. An image on the axonal transport of stained neuron mitochondria was taken with a confocal microscope (Leica SP8; Leica microsystems, UK) at an interval of one second for one minute to measure a transport velocity of each mitochondria per second with an IMARIS analysis program (BITPLANE, Zurich, Switzerland).
In result, after setting a section, in which the group treated with amyloid-beta had shown a significant decrease in the transport velocity of mitochondria compared to a vehicle, it was confirmed for 1,3,4-oxadiazole triazol derivative compounds of the present invention, stereoisomers thereof or pharmaceutically acceptable salts thereof that the vehicles is represented as 100%, the amyloid beta treatment group is represented as 0%, a velocity distribution of the compound after normalization is represented as *, 0%˜50%; **, 50%˜100%; ***, >100%.

[4] abbreviates: human recombinant HDAC1, IC50 calculated with GraphPad Prism.
Setting [5] is: human recombinant HDAC6, IC50 calculated with GraphPad Prism.
Setting [6] is: human recombinant HDAC1, Fluor de Lys substrate, 30° C. 60 minutes.
[7] abbreviates: human recombinant HDAC6, same protocol as HDAC1.

Where two headings read alike, the source gives them in different places.

T1 sequence (Q13547 whole entry): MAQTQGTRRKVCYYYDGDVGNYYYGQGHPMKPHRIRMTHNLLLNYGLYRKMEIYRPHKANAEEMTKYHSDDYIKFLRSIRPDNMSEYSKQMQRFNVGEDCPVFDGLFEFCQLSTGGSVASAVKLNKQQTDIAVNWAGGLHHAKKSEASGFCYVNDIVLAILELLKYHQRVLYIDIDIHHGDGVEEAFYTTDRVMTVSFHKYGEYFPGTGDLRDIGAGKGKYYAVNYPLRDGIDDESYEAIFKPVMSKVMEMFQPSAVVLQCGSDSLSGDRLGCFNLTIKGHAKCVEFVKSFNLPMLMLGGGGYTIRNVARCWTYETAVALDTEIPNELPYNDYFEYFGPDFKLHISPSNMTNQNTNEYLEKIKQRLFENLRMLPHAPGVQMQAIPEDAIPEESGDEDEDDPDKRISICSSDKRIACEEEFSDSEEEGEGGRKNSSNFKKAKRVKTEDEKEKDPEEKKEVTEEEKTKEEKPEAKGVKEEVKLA

`FC(F)c1nnc(-c2ccc(Cn3cc(-c4cccc(NC5CCCCC5)c4)nn3)nc2)o1` [Compound 3828, N-cyclohexyl-3-(1-((5-(5-(difluoromethyl)-1,3,4-oxadiazol-2-yl)pyridin-2-yl)methyl)-1H-1,2,3-triazol-4-yl)aniline]: the IC50 in assay [1] (setting [4]) is above 50000 nM; in assay [2] (setting [5]), 41.8 nM. Moreover, the “HDAC6 selectivity (fold)” value in assay [2] (HDAC1 IC50 / HDAC6 IC50) came out at 1196 fold. In addition, the “Velocity distribution (%)” value in assay [3] is given as “* (*, 0%˜50%)”.

Take `FC(F)c1nnc(-c2ccc(Cn3cc(-c4ccc5c(CN6CCOCC6)c[nH]c5c4)nn3)nc2)o1` [Compound 3944, 4-((6-(1-((5-(5-(difluoromethyl)-1,3,4-oxadiazol-2-yl)pyridin-2-yl)methyl)-1H-1,2,3-triazol-4-yl)-1H-indol-3-yl)methyl)morpholine]: the values for the IC50 in assay [1] (setting [4]) and in assay [2] (setting [5]) were above 50000 nM and 6.7 nM, respectively. In addition, the “HDAC6 selectivity (fold)” value in assay [2] (HDAC1 IC50 / HDAC6 IC50) was determined as 7462 fold. In addition, the “Velocity distribution (%)” value in assay [3] is “* (*, 0%˜50%)”.

With `CC(C)N1CCN(c2cccc(-c3cn(Cc4ccc(-c5nnc(C(F)F)o5)cn4)nn3)c2)CC1` [Compound 4070, 2-(difluoromethyl)-5-(6-((4-(3-(4-isopropylpiperazin-1-yl)phenyl)-1H-1,2,3-triazol-1-yl)methyl)pyridin-3-yl)-1,3,4-oxadiazole], the IC50 was above 50000 nM in assay [1] (setting [4]) and 38.5 nM in assay [2] (setting [5]). In assay [2] (HDAC1 IC50 / HDAC6 IC50), the “HDAC6 selectivity (fold)” value came out at 1298 fold. For the same compound, the “Velocity distribution (%)” value in assay [3] is reported as “** (**, 50%˜100%)”.

Take `CN(C)Cc1ccc(-c2cn(Cc3ccc(-c4nnc(C(F)F)o4)cc3F)nn2)cn1` [Compound 18176, 1-(5-(1-(4-(5-(difluoromethyl)-1,3,4-oxadiazol-2-yl)-2-fluorobenzyl)-1H-1,2,3-triazol-4-yl)pyridin-2-yl)-N,N-dimethylmethanamine]: the figures for the IC50 in assay [1] (setting [6]) and in assay [2] (setting [7]) were above 50000 nM and 70.9 nM, respectively. The “HDAC6 selectivity (fold)” value in assay [2] (HDAC6 over HDAC1) is listed as 705 fold. For the same compound, in assay [3], the “Velocity distribution (%)” value is reported as “** (**, 50%˜100%)”.

On to `Fc1cc(-c2nnc(C(F)F)o2)ccc1Cn1cc(-c2ccc3c(CN4CCCC4)c[nH]c3c2)nn1` [Compound 4109, 2-(difluoromethyl)-5-(3-fluoro-4-((4-(3-(pyrrolidin-1-ylmethyl)-1H-indol-6-yl)-1H-1,2,3-triazol-1-yl)methyl)phenyl)-1,3,4-oxadiazole], for which the IC50 in assay [1] (setting [4]) is above 50000 nM; in assay [2] (setting [5]), 13.7 nM. Besides, the “HDAC6 selectivity (fold)” value in assay [2] (HDAC1 IC50 / HDAC6 IC50) is 3649 fold. Further, in assay [3], the “Velocity distribution (%)” value was “*** (***, >100%)”.

For the compound `Cc1cccc(-c2cn(Cc3ccc(-c4nnc(C(F)F)o4)cn3)nn2)c1` [Compound 3856, 2-(difluoromethyl)-5-(6-((4-(m-tolyl)-1H-1,2,3-triazol-1-yl)methyl)pyridin-3-yl)-1,3,4-oxadiazole], the results for the IC50 in assay [1] (setting [4]) and in assay [2] (setting [5]) were above 50000 nM and 33.2 nM, respectively. For the same compound, the “HDAC6 selectivity (fold)” value in assay [2] (HDAC1 IC50 / HDAC6 IC50) turned out to be 1506 fold. Besides, the “Velocity distribution (%)” value in assay [3] was “*** (***, >100%)”.

With `FC(F)c1nnc(-c2ccc(Cn3cc(-c4ccc5cn[nH]c5c4)nn3)cc2)o1` [Compound 4341, 2-(4-((4-(1H-indazol-6-yl)-1H-1,2,3-triazol-1-yl)methyl)phenyl)-5-(difluoromethyl)-1,3,4-oxadiazole], the IC50 is above 50000 nM in assay [1] (setting [4]) and 40.9 nM in assay [2] (setting [5]). The “HDAC6 selectivity (fold)” value in assay [2] (HDAC1 IC50 / HDAC6 IC50) is recorded as 1222 fold. In assay [3], the “Velocity distribution (%)” value is reported as “** (**, 50%˜100%)”.

In the case of `CN1CCN(c2cccc(-c3cn(Cc4ccc(-c5nnc(C(F)F)o5)cn4)nn3)c2)CC1` [Compound 3867, 2-(difluoromethyl)-5-(6-((4-(3-(4-methylpiperazin-1-yl)phenyl)-1H-1,2,3-triazol-1-yl)methyl)pyridin-3-yl)-1,3,4-oxadiazole], the IC50 was above 50000 nM in assay [1] (setting [4]) and 25.6 nM in assay [2] (setting [5]). Besides, the “HDAC6 selectivity (fold)” value in assay [2] (HDAC1 IC50 / HDAC6 IC50) was determined as 1953 fold. Besides, in assay [3], the “Velocity distribution (%)” value is reported as “** (**, 50%˜100%)”.

On to `FC(F)c1nnc(-c2ccc(Cn3cc(-c4ccc5c(CN6CCOCC6)c[nH]c5c4)nn3)cc2)o1` [Compound 4134, 4-((6-(1-(4-(5-(difluoromethyl)-1,3,4-oxadiazol-2-yl)benzyl)-1H-1,2,3-triazol-4-yl)-1H-indol-3-yl)methyl)morpholine], for which the IC50 in assay [1] (setting [4]) is above 50000 nM; in assay [2] (setting [5]), 16.5 nM. Further, the “HDAC6 selectivity (fold)” value in assay [2] (HDAC1 IC50 / HDAC6 IC50) was 3030 fold. Moreover, the “Velocity distribution (%)” value in assay [3] was “** (**, 50%˜100%)”.

On to `FC(F)c1nnc(-c2ccc(Cn3cc(-c4cccc(-n5ccnc5)c4)nn3)nc2)o1` [Compound 4075, 2-(6-((4-(3-(1H-imidazol-1-yl)phenyl)-1H-1,2,3-triazol-1-yl)methyl)pyridin-3-yl)-5-(difluoromethyl)-1,3,4-oxadiazole], for which the IC50 in assay [1] (setting [4]) was above 50000 nM; in assay [2] (setting [5]), 16.4 nM. The “HDAC6 selectivity (fold)” value in assay [2] (HDAC1 IC50 / HDAC6 IC50) came out at 3048 fold. Besides, the “Velocity distribution (%)” value in assay [3] was “*** (***, >100%)”.

Take `FC(F)c1nnc(-c2ccc(Cn3nnc(-c4cccs4)n3)nc2)o1` [Compound 4232, 2-(difluoromethyl)-5-(6-((5-(thiophen-2-yl)-2H-tetrazol-2-yl)methyl)pyridin-3-yl)-1,3,4-oxadiazole]: the results for the IC50 in assay [1] (setting [4]) and in assay [2] (setting [5]) were above 50000 nM and 22.4 nM, respectively. For the same compound, the “HDAC6 selectivity (fold)” value in assay [2] (HDAC1 IC50 / HDAC6 IC50) amounted to 2232 fold. Besides, the “Velocity distribution (%)” value in assay [3] is given as “** (**, 50%˜100%)”.

`Fc1cc(-c2nnc(C(F)F)o2)ccc1Cn1cc(-c2ccc3[nH]ncc3c2)nn1` [Compound 4345, 2-(4-((4-(1H-indazol-5-yl)-1H-1,2,3-triazol-1-yl)methyl)-3-fluorophenyl)-5-(difluoromethyl)-1,3,4-oxadiazole]: the IC50 in assay [1] (setting [4]) is above 50000 nM. Also, the “Velocity distribution (%)” value in assay [3] was “* (*, 0%˜50%)”.

With `FC(F)c1nnc(-c2ccc(Cn3nnc(-c4ccccc4)n3)nc2)o1` [Compound 4234, 2-(difluoromethyl)-5-(6-((5-phenyl-2H-tetrazol-2-yl)methyl)pyridin-3-yl)-1,3,4-oxadiazole], the IC50 in assay [1] (setting [4]) is above 50000 nM. In addition, in assay [3], the “Velocity distribution (%)” value is “*** (***, >100%)”.

On to `CC(C)N1CCN(c2cccc(-c3cn(Cc4ncc(-c5nnc(C(F)F)o5)cc4F)nn3)c2)CC1` [Compound 18926], for which the IC50 is above 50000 nM in assay [1] (setting [6]) and 63.9 nM in assay [2] (setting [7]). In addition, the “HDAC6 selectivity (fold)” value in assay [2] (HDAC6 over HDAC1) is 782 fold.

In the case of `Fc1cc(-c2nnc(C(F)F)o2)ccc1Cn1cc(-c2cccc(CN3CCOCC3)c2)nn1` [Compound 4404, 4-(3-(1-(4-(5-(difluoromethyl)-1,3,4-oxadiazol-2-yl)-2-fluorobenzyl)-1H-1,2,3-triazol-4-yl)benzyl)morpholine], the IC50 is above 50000 nM in assay [1] (setting [4]) and 59.7 nM in assay [2] (setting [5]). Also, in assay [2] (HDAC1 IC50 / HDAC6 IC50), the “HDAC6 selectivity (fold)” value was 837 fold.
